Values belong to the compound of their own block, whether it stands above or below them.
Experiments:
Assay type in all cases: binding
P2RY10 = target: T1, P2RY10 (Homo sapiens, UniProt O00398); assay: NanoBRET screen HiBiT-P2RY10 in HEK293
T1 construct: purchased Promega (in-house HiBiT-GPCR construct library, NanoBRET)
Protocol: (§1) Each tracer candidate was screened across the entire library of HiBiT-GPCR constructs using NanoBRET as the detection modality. As depicted in Figure 4A, the specificity of interactions was evaluated through decrease in BRET due to competitive displacement of a bound tracer by excess parental compound. Each tracer was analyzed for binding to each HiBiT-GPCR fusion in the absence and in the presence of competing parental compound. Briefly, HEK293 cells were transfected with HiBiT-GPCR constructs diluted into promoterless DNA to reduce expression and maximize translocation to the cell surface. Each tracer candidate was then screened at concentrations of 1 μM and 0.1 μM across cells expressing these fusions. Cells were treated for 1.5 h with tracer either alone or in the presence of 20 μM competing parental compound (i.e., control). BRET was measured upon addition of purified LgBiT and subsequent complementation with HiBiT genetically fused to a GPCR. The specificity of interactions was assessed through a decrease in BRET signal due to competitive displacement of the bound tracer. To further gauge the robustness of these interactions, the fold response over the control (i.e., BRETtracer/BRETcontrol) was calculated. We chose a 1.5-fold response, which translates to ≥7-fold signal over noise as the minimal threshold required to score an interaction as positive. […]. Below we highlight the screening results obtained for our exemplary fluorescent tracers based on Clozapine, Amitriptyline and AZD1283.
(§2) HiBiT-GPCR DNA constructs were diluted in 10 mM Tris pH 8 to a final concentration of 0.01 μg/μL, arrayed in 96-well plates and stored at −20 °C. For transfection, HEK293 cells were suspended in Opti-MEM (without phenol red) supplemented with 2% fetal bovine serum (Seradigm) and 100 units/mL penicillin–streptomycin (Gibco) at a final concentration of 220,000 cells/mL and dispensed into white 96-well plates at 90 μL/well. Subsequent transfections and screens were carried using an Agilent Bravo Automated Liquid Handling Platform. First, the 96-well HiBiT DNA arrays were diluted 25-fold in Opti-MEM (without serum or phenol red) to a final concentration of 0.0004 μg/μL and 20 μL of the diluted DNAs were transferred into new 96-well plates. Next, promoterless carrier DNA (1 μg/μL) was diluted 25-fold (0.04 μg/μL) and then dispensed into the diluted arrays at 20 μL/well. Following brief mixing, Viafect transfection reagent (Promega) diluted 16-fold into Opti-MEM was dispensed into the plates at 40 μL/well. After mixing by pipetting, plates were incubated for 10 min on the pipetting station deck. The DNA-transfection reagent complexes were then added to plates containing cells. To facilitate the screen, 10 μL of DNA-transfection reagent complexes were added in duplicates to the top 4 and bottom 4 rows, resulting in two identical 48-well arrays per plate. Plates with transfected cells were incubated for 18–20 h at 37 °C/5% CO2. A screen of each tracer across the entire library using two different concentrations requires duplicate plates of transfected cells. Depending on the number of tracers being screened, transfections can be scaled up using the same ratios. The next day, for each tracer, four 20× screening solutions in tracer dilution buffer (Promega) were prepared: two duplicates at final concentration of 20 μM and two duplicates at a final concentration of 2 μM. A competing unmodified compound was added to one of each duplicate at a final concentration of 400 μM. The four resulting solutions were diluted 4-fold in Opti-MEM without serum or phenol red to generate 5× solutions (5 µM and 0.5 µM tracer +/− 100 μM competing compound). To screen the library, a BioTek MultiFlo FX liquid dispenser was used to dispense 22.5 µL of tracer solution to the top 4 rows and 22.5 µL tracer + competing compound solution to the 4 bottom rows. Plates were briefly mixed on an orbital shaker and incubated for 1.5 h at room temperature. […]

GRPR = target: T2, GRPR (Homo sapiens, UniProt P30550); assay: NanoBRET screen HiBiT-GRPR in HEK293
T2 construct: purchased Promega (in-house HiBiT-GPCR construct library, NanoBRET)
Protocol: as §1, §2

FPR2 = target: T3, FPR2 (Homo sapiens, UniProt P25090); assay: NanoBRET screen HiBiT-FPR2 in HEK293
T3 construct: purchased Promega (in-house HiBiT-GPCR construct library, NanoBRET)
T3 sequence (P25090 1-351): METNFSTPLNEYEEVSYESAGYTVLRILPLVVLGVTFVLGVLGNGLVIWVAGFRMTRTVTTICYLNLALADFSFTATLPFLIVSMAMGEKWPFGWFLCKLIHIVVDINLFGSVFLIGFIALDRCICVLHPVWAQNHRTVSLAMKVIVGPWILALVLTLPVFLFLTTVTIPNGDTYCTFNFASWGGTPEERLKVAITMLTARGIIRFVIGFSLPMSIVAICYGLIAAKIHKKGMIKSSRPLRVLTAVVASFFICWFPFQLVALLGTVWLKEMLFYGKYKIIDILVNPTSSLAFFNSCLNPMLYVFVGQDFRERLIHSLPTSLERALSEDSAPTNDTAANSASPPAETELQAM
Protocol: as §1, §2

NPY2R = target: T4, NPY2R (Homo sapiens, UniProt P49146); assay: NanoBRET screen HiBiT-NPY2R in HEK293
T4 construct: purchased Promega (in-house HiBiT-GPCR construct library, NanoBRET)
T4 sequence (P49146 1-381): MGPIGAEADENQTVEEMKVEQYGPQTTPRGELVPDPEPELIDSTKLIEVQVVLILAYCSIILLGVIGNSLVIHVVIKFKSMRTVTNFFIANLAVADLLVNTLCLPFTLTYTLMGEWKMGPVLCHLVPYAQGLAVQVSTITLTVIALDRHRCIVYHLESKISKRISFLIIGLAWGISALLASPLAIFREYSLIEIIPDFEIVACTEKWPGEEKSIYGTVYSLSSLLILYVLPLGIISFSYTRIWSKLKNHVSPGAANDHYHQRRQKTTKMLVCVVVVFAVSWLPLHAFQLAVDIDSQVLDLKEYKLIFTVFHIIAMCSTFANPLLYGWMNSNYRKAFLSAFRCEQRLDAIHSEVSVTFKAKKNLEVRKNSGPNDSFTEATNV
Protocol: as §1, §2

T1 sequence (O00398 whole entry, one chain of several): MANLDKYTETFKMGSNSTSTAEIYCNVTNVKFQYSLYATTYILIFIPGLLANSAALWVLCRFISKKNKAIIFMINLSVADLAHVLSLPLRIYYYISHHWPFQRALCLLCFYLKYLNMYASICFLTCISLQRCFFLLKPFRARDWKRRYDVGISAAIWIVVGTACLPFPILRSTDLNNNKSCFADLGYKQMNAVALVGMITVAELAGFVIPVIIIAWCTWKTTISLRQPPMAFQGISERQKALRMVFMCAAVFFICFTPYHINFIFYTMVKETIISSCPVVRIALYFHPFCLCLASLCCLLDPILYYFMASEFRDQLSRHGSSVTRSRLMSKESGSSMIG
T2 sequence (P30550 whole entry): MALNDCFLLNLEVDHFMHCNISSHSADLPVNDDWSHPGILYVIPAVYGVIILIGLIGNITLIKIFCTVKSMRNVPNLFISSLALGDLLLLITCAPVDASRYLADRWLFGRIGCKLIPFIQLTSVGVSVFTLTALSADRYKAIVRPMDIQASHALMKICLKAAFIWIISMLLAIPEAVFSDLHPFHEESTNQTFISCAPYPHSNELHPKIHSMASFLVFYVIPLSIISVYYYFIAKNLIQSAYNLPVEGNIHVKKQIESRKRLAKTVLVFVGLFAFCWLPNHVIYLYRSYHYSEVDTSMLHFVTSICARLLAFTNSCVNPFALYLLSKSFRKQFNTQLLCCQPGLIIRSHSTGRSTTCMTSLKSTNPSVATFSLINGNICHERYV

NanoBRET Fold Response (P2RY10; 0.1μM tracer): 0.88
NanoBRET Fold Response (P2RY10; 1μM tracer): 1.15
NanoBRET Fold Response (GRPR; 0.1μM tracer): 0.84
NanoBRET Fold Response (GRPR; 1μM tracer): 1.22
NanoBRET Fold Response (FPR2; 0.1μM tracer): 0.74
NanoBRET Fold Response (FPR2; 1μM tracer): 1.09
NanoBRET Fold Response (NPY2R; 0.1μM tracer): 0.99
NanoBRET Fold Response (NPY2R; 1μM tracer): 0.88
Compound: COc1ccc2[nH]c(-c3ccc(CNC(=O)CCOCCOCCOCCOCCNC(=O)CCc4ccc5n4[B-](F)(F)[N+]4=C(c6ccc[nH]6)C=CC4=C5)cc3)c(CCNC(C)=O)c2n1 [AzomelatoninICO9-2-NB590]

NanoBRET Fold Response (P2RY10; P2RY10, 0.1μM tracer): 1.18
NanoBRET Fold Response (P2RY10; P2RY10, 1μM tracer): 1.33
NanoBRET Fold Response (GRPR; GRPR, 0.1μM tracer): 1.11
NanoBRET Fold Response (GRPR; GRPR, 1μM tracer): 1.37
NanoBRET Fold Response (FPR2; FPR2, 0.1μM tracer): 0.91
NanoBRET Fold Response (FPR2; FPR2, 1μM tracer): 1.34
NanoBRET Fold Response (NPY2R; NPY2R, 0.1μM tracer): 0.94
NanoBRET Fold Response (NPY2R; NPY2R, 1μM tracer): 1.11
Compound: O=C(CCOCCOCCOCCOCCNC(=O)CCc1ccc2n1[B-](F)(F)[N+]1=C(c3ccc[nH]3)C=CC1=C2)NCCCN1CCN(C2=Nc3cc(Cl)ccc3Nc3ccccc32)CC1 [Clozapine-a-2-NB590]

Compound: CCCn1c(=O)c2[nH]c(-c3ccc(OCC(=O)NCCNC(=O)CCOCCNC(=O)c4ccc(CNC(=O)CCc5ccc6n5[B-](F)(F)[N+]5=C(c7ccc[nH]7)C=CC5=C6)cc4)cc3)nc2n(CCC)c1=O [XAC-3-NB590]
NanoBRET Fold Response (P2RY10; P2RY10, tracer 0.1μM): 0.88
NanoBRET Fold Response (P2RY10; P2RY10, tracer 1μM): 0.84
NanoBRET Fold Response (GRPR; GRPR, tracer 0.1μM): 1.24
NanoBRET Fold Response (GRPR; GRPR, tracer 1μM): 1.01
NanoBRET Fold Response (FPR2; FPR2, tracer 0.1μM): 0.89
NanoBRET Fold Response (FPR2; FPR2, tracer 1μM): 0.95
NanoBRET Fold Response (NPY2R; NPY2R, tracer 0.1μM): 0.93
NanoBRET Fold Response (NPY2R; NPY2R, tracer 1μM): 1.03

Compound: O=C(CCc1ccc2n1[B-](F)(F)[N+]1=C(c3ccc[nH]3)C=CC1=C2)NCc1ccc(C(=O)NCCOCCOCCNCC(O)COc2cccc3ccccc23)cc1 (centres unmarked) [Propranolol-3-NB590]
NanoBRET Fold Response (P2RY10; P2RY10, 0.1μM): 1.34
NanoBRET Fold Response (P2RY10; P2RY10, 1μM): 0.95
NanoBRET Fold Response (GRPR; GRPR, 0.1μM): 0.99
NanoBRET Fold Response (GRPR; GRPR, 1μM): 1.03
NanoBRET Fold Response (FPR2; FPR2, 0.1μM): 1.02
NanoBRET Fold Response (FPR2; FPR2, 1μM): 1.12
NanoBRET Fold Response (NPY2R; NPY2R, 0.1μM): 1.02
NanoBRET Fold Response (NPY2R; NPY2R, 1μM): 1.00

Compound: O=C(CCc1ccc2n1[B-](F)(F)[N+]1=C(c3ccc[nH]3)C=CC1=C2)NCc1ccc(C(=O)NCCOCCC(=O)N[C@@H]2CC[C@@]3(O)[C@H]4Cc5ccc(O)c6c5[C@@]3(CCN4CC3CC3)[C@H]2O6)cc1 [Naltrexone-3-NB590]
NanoBRET Fold Response (P2RY10; P2RY10, tracer 0.1μM): 1.07
NanoBRET Fold Response (P2RY10; P2RY10, tracer 1μM): 1.36
NanoBRET Fold Response (GRPR; GRPR, tracer 0.1μM): 0.91
NanoBRET Fold Response (GRPR; GRPR, tracer 1μM): 0.92
NanoBRET Fold Response (FPR2; FPR2, tracer 0.1μM): 0.87
NanoBRET Fold Response (FPR2; FPR2, tracer 1μM): 0.66
NanoBRET Fold Response (NPY2R; NPY2R, tracer 0.1μM): 1.05
NanoBRET Fold Response (NPY2R; NPY2R, tracer 1μM): 0.96

NanoBRET Fold Response (P2RY10; P2RY10, tracer 0.1μM): 1.03
NanoBRET Fold Response (P2RY10; P2RY10, tracer 1μM): 1.02
NanoBRET Fold Response (GRPR; GRPR, tracer 0.1μM): 1.08
NanoBRET Fold Response (GRPR; GRPR, tracer 1μM): 0.98
NanoBRET Fold Response (FPR2; FPR2, tracer 0.1μM): 0.95
NanoBRET Fold Response (FPR2; FPR2, tracer 1μM): 1.10
NanoBRET Fold Response (NPY2R; NPY2R, tracer 0.1μM): 0.98
NanoBRET Fold Response (NPY2R; NPY2R, tracer 1μM): 1.00
Compound: N#CN=C(NCCCOc1cccc(CN2CCCCC2)c1)NCCNC(=O)CCOCCOCCOCCOCCNC(=O)CCc1ccc2n1[B-](F)(F)[N+]1=C(c3ccc[nH]3)C=CC1=C2 [Aminopotentidine-2-NB590]

NanoBRET Fold Response (P2RY10; 0.1μM tracer): 0.88
NanoBRET Fold Response (P2RY10; 1μM tracer): 0.88
NanoBRET Fold Response (GRPR; 0.1μM tracer): 1.00
NanoBRET Fold Response (GRPR; 1μM tracer): 1.08
NanoBRET Fold Response (FPR2; 0.1μM tracer): 0.96
NanoBRET Fold Response (FPR2; 1μM tracer): 1.50
NanoBRET Fold Response (NPY2R; 0.1μM tracer): 1.19
NanoBRET Fold Response (NPY2R; 1μM tracer): 0.85
Compound: COc1ccc2c(n1)c(CCNC(C)=O)cn2CCNC(=O)CCc1ccc2n1[B-](F)(F)[N+]1=C(c3ccc[nH]3)C=CC1=C2 [Azamelatonin-1-NB590]

Compound: CC(C)N(CC[C@H](c1ccccc1)c1cc(CCNC(=O)c2ccc(CNC(=O)CCc3ccc4n3[B-](F)(F)[N+]3=C(c5ccc[nH]5)C=CC3=C4)cc2)ccc1O)C(C)C [Tolterodine-BZ-NB590]
NanoBRET Fold Response (P2RY10; P2RY10, tracer 0.1μM): 1.34
NanoBRET Fold Response (P2RY10; P2RY10, tracer 1μM): 0.76
NanoBRET Fold Response (GRPR; GRPR, tracer 0.1μM): 0.81
NanoBRET Fold Response (GRPR; GRPR, tracer 1μM): 0.99
NanoBRET Fold Response (FPR2; FPR2, tracer 0.1μM): 0.95
NanoBRET Fold Response (FPR2; FPR2, tracer 1μM): 0.95
NanoBRET Fold Response (NPY2R; NPY2R, tracer 0.1μM): 0.90
NanoBRET Fold Response (NPY2R; NPY2R, tracer 1μM): 1.04

Compound: CN1CCN(C2=Nc3cc(Cl)ccc3Nc3ccc(CNC(=O)CCOCCOCCOCCOCCNC(=O)CCc4ccc5n4[B-](F)(F)[N+]4=C(c6ccc[nH]6)C=CC4=C5)cc32)CC1 [Clozapine-b-2-NB590]
NanoBRET Fold Response (P2RY10; P2RY10, 0.1μM tracer): 0.96
NanoBRET Fold Response (P2RY10; P2RY10, 1μM tracer): 1.15
NanoBRET Fold Response (GRPR; GRPR, 0.1μM tracer): 1.01
NanoBRET Fold Response (GRPR; GRPR, 1μM tracer): 1.00
NanoBRET Fold Response (FPR2; FPR2, 0.1μM tracer): 0.78
NanoBRET Fold Response (NPY2R; NPY2R, 0.1μM tracer): 1.00
NanoBRET Fold Response (NPY2R; NPY2R, 1μM tracer): 1.02
